Experimental findings from US8563714B2, “Bridged spiro [2.4] heptane derivatives as ALX receptor and/or FPRL2 agonists” (Actelion Pharmaceuticals Ltd., priority 2009, dated 2013) are described below.

By EC50 is commonly meant the concentration at which the effect is half-maximal.

The target of one assay is T1, human ALX receptor (Homo sapiens, UniProt P25090).
T1 construct: expressed in transfected cells; host or cells: HEK293 (HEK293-hALXR-Gα16)
T1 sequence (P25090 1-351): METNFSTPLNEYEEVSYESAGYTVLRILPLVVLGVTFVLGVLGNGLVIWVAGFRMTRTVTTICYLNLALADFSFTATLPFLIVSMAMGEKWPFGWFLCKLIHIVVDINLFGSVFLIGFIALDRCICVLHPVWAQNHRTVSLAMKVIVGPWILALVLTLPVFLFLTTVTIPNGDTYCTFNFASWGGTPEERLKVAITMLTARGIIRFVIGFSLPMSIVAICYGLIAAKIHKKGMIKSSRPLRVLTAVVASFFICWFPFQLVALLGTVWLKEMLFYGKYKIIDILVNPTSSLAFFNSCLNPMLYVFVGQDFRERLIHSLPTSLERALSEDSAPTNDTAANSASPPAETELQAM
Description: Intracellular calcium measurements (FLIPR), agonistic activity in HEK293-hALXR-Gα16 cells. Type of assay: cell-based. The conditions noted are these: Fluo-4 calcium FLIPR, normalized to WKYMVm 10 nM. Put shortly:
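Agonist-induced calcium flux was recorded by FLIPR (488/540 nm) in HEK293-hALXR-Gα16 cells pre-loaded with Fluo-4 AM (1 μM, 60 min, 37°C). Peak signal above baseline, after subtracting buffer addition, was expressed relative to WKYMVm at 10 nM final.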
Background: Calcium flux is commonly read through the fluorescence of an indicator in the cells.

A further assay deals with T2, human FPRL2 (Homo sapiens, UniProt P25089).
T2 construct: expressed in transfected cells; host or cells: HEK293 (HEK293-hFPRL2-Gα16)
T2 sequence (P25089 1-353): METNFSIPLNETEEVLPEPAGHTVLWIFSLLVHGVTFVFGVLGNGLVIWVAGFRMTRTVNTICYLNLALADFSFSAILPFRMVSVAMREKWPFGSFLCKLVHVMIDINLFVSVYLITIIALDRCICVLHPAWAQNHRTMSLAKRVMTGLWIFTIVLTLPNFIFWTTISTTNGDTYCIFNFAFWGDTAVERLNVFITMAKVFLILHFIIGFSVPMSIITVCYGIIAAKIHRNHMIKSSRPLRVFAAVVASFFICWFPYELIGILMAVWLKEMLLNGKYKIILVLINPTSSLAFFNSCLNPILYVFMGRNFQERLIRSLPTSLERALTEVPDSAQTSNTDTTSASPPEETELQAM
Description: Intracellular calcium measurements (FLIPR), agonistic activity in HEK293-hFPRL2-Gα16 cells. The format is cell-based. As to conditions: Fluo-4 calcium FLIPR, normalized to GLY14-Humanin 100 nM. The essentials: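 Peak values after baseline subtraction are expressed relative to 100 nM Gly14-Humanin; compounds diluted in assay buffer from 10 mM DMSO stocks.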

SMILES strings stand for the structures. Bounds are passed on as bounds.

Turning to `CC(=O)c1csc(NC(=O)[C@H]2[C@H](C(=O)NCCCCN3CCCC3)[C@H]3C=C[C@@H]2C32CC2)n1` (racemic) [Example 344, (5R*)—N^5-(4-Acetyl-thiazol-2-yl)-(6R*)—N^6-(4-pyrrolidino-butyl)-(4S*,7R*)-[4,7-ethenylene-spiro[2.4]heptane]-5,6-dicarboxamide], the values for the EC50 on human ALX receptor and on human FPRL2 were 7.85 µM and 414 nM, respectively.
The like results for `O=C(NCCCCN1CCCC1)[C@H]1[C@H](C(=O)Nc2nc(C(F)(F)F)cs2)[C@@H]2C=C[C@H]1C21CC1` (racemic) [Example 345, (5R*)—N^5-(4-Trifluoromethyl-thiazol-2-yl)-(6R*)—N^6-(4-pyrrolidino-butyl)-(4S*,7R*)-[4,7-ethenylene-spiro[2.4]heptane]-5,6-dicarboxamide] were, in that order, > 25 µM and 734 nM.
As to `O=C(NCCCCN1CCCC1)[C@H]1[C@H](C(=O)NCc2c(F)cc(F)cc2F)[C@@H]2C=C[C@H]1C21CC1` (racemic) [Example 346, (5R*)—N^5-(2,4,6-Trifluorophenyl-methyl)-(6R*)—N^6-(4-pyrrolidino-butyl)-(4S*,7R*)-[4,7-ethenylene-spiro[2.4]heptane]-5,6-dicarboxamide], the EC50 at human ALX receptor came out at 1.54 µM; on human FPRL2, 508 nM.
In the case of `Cc1ccc(CNC(=O)[C@H]2[C@H](C(=O)NCCCCN3CCCC3)[C@H]3C=C[C@@H]2C32CC2)c(C)c1` (racemic) [Example 347, (5R*)—N^5-(2,4-Dimethylphenyl-methyl)-(6R*)—N^6-(4-pyrrolidino-butyl)-(4S*,7R*)-[4,7-ethenylene-spiro[2.4]heptane]-5,6-dicarboxamide], the figures for the EC50 on human ALX receptor and at human FPRL2 were 1.8 µM and 417 nM, respectively.
The like results for `CC(=O)c1nc(CNC(=O)[C@H]2[C@H](C(=O)NCCCCN3CCCC3)[C@H]3C=C[C@@H]2C32CC2)cs1` (racemic) [Example 348, (5R*)—N^5-[(2-Acetyl-thiazol-4-yl)methyl]-(6R*)—N^6-(4-pyrrolidino-butyl)-(4S*,7R*)-[4,7-ethenylene-spiro[2.4]heptane]-5,6-dicarboxamide] were, in that order, 3.23 µM and 219 nM.
On the same counts, the results for `O=C(NCCCCN1CCCC1)[C@H]1[C@H](C(=O)NCc2cccc(Cl)c2F)[C@@H]2C=C[C@H]1C21CC1` (racemic) [Example 349, (5R*)—N^5-(3-Chloro-2-fluorophenyl-methyl)-(6R*)—N^6-(4-pyrrolidino-butyl)-(4S*,7R*)-[4,7-ethenylene-spiro[2.4]heptane]-5,6-dicarboxamide] are 4.72 µM and 200 nM.
The like results for `Cc1coc(NC(=O)[C@H]2[C@H](C(=O)NCCCCN3CCCC3)[C@H]3C=C[C@@H]2C32CC2)n1` (racemic) [Example 350, (5R*)—N^5-(4-Methyl-oxazol-2-yl)-(6R*)—N^6-(4-pyrrolidino-butyl)-(4S*,7R*)-[4,7-ethenylene-spiro[2.4]heptane]-5,6-dicarboxamide] were, in that order, 5.73 µM and 444 nM.
Turning to `CC(=O)c1cnc(CNC(=O)[C@H]2[C@H](C(=O)NCCCCN3CCCC3)[C@H]3C=C[C@@H]2C32CC2)s1` (racemic) [Example 351, (5R*)—N^5-[(5-Acetyl-thiazol-2-yl)methyl]-(6R*)—N^6-(4-pyrrolidino-butyl)-(4S*,7R*)-[4,7-ethenylene-spiro[2.4]heptane]-5,6-dicarboxamide], the EC50 at human ALX receptor is 6.33 µM; at human FPRL2, 94 nM.
On the same counts, the results for `CC(=O)c1cccc(NC(=O)[C@H]2[C@H](C(=O)NCCCCN3CCCC3)[C@H]3C=C[C@@H]2C32CC2)c1` (racemic) [Example 352, (5R*)—N^5-(3-Acetylphenyl)-(6R*)—N^6-(4-pyrrolidino-butyl)-(4S*,7R*)-[4,7-ethenylene-spiro[2.4]heptane]-5,6-dicarboxamide] are 6.7 µM and 958 nM.
On the same counts, the results for `O=C(NCCCCN1CCCC1)[C@H]1[C@H](C(=O)NCc2ccc(F)cc2Br)[C@@H]2C=C[C@H]1C21CC1` (racemic) [Example 353, (5R*)—N^5-(2-Bromo-4-fluorophenyl-methyl)-(6R*)—N^6-(4-pyrrolidino-butyl)-(4S*,7R*)-[4,7-ethenylene-spiro[2.4]heptane]-5,6-dicarboxamide] are 6.9 µM and 256 nM.
On the same counts, the results for `O=C(NCCCCN1CCCC1)[C@H]1[C@H](C(=O)NCc2ccc(F)c(Br)c2)[C@@H]2C=C[C@H]1C21CC1` (racemic) [Example 354, (5R*)—N^5-(3-Bromo-4-fluorophenyl-methyl)-(6R*)—N^6-(4-pyrrolidino-butyl)-(4S*,7R*)-[4,7-ethenylene-spiro[2.4]heptane]-5,6-dicarboxamide] are 7.41 µM and 223 nM.
As to `O=C(NCCCCN1CCCC1)[C@H]1[C@H](C(=O)NCc2cc(F)cc(F)c2F)[C@@H]2C=C[C@H]1C21CC1` (racemic) [Example 355, (5R*)—N^5-(2,3,5-Trifluorophenyl-methyl)-(6R*)—N^6-(4-pyrrolidino-butyl)-(4S*,7R*)-[4,7-ethenylene-spiro[2.4]heptane]-5,6-dicarboxamide], the EC50 at human ALX receptor was determined as 7.5 µM; at human FPRL2, 477 nM.
Regarding `Cc1nonc1CNC(=O)[C@H]1[C@H](C(=O)NCCCCN2CCCC2)[C@H]2C=C[C@@H]1C21CC1` (racemic) [Example 356, (5R*)—N^5-[(4-Methyl-1,2,5-oxadiazol-3-yl)methyl]-(6R*)—N^6-(4-pyrrolidino-butyl)-(4S*,7R*)-[4,7-ethenylene-spiro[2.4]heptane]-5,6-dicarboxamide], the EC50 on human ALX receptor is 7.71 µM; at human FPRL2, 948 nM.
On the same counts, the results for `O=C(NCCCCN1CCCC1)[C@H]1[C@H](C(=O)NCc2cccc(C(F)(F)F)c2F)[C@@H]2C=C[C@H]1C21CC1` (racemic) [Example 357, (5R*)—N^5-(2-Fluoro-3-trifluoromethylphenyl-methyl)-(6R*)—N^6-(4-pyrrolidino-butyl)-(4S*,7R*)-[4,7-ethenylene-spiro[2.4]heptane]-5,6-dicarboxamide] are 7.91 µM and 290 nM.
On to `Cc1cc(C)cc(CNC(=O)[C@H]2[C@H](C(=O)NCCCCN3CCCC3)[C@H]3C=C[C@@H]2C32CC2)c1` (racemic) [Example 358, (5R*)—N^5-(3,5-Dimethylphenyl-methyl)-(6R*)—N^6-(4-pyrrolidino-butyl)-(4S*,7R*)-[4,7-ethenylene-spiro[2.4]heptane]-5,6-dicarboxamide], for which the results for the EC50 on human ALX receptor and at human FPRL2 were 7.98 µM and 176 nM, respectively.
Take `CC(=O)c1cccc(CNC(=O)[C@H]2[C@H](C(=O)NCCCCN3CCCC3)[C@H]3C=C[C@@H]2C32CC2)c1` (racemic) [Example 359, (5R*)—N^5-(3-Acetylphenyl-methyl)-(6R*)—N^6-(4-pyrrolidino-butyl)-(4S*,7R*)-[4,7-ethenylene-spiro[2.4]heptane]-5,6-dicarboxamide]: the figures for the EC50 on human ALX receptor and on human FPRL2 were 8.35 µM and 359 nM, respectively.
The like results for `O=C(NCCCCN1CCCC1)[C@H]1[C@H](C(=O)NCc2cccc(OC(F)F)c2)[C@@H]2C=C[C@H]1C21CC1` (racemic) [Example 360, (5R*)—N^5-(3-Difluoromethoxyphenyl-methyl)-(6R*)—N^6-(4-pyrrolidino-butyl)-(4S*,7R*)-[4,7-ethenylene-spiro[2.4]heptane]-5,6-dicarboxamide] were, in that order, 8.7 µM and 530 nM.
Regarding `COc1cc(CNC(=O)[C@H]2[C@H](C(=O)NCCCCN3CCCC3)[C@H]3C=C[C@@H]2C32CC2)ccn1` (racemic) [Example 361, (5R*)—N^5-[(2-Methoxypyridin-4-yl)methyl]-(6R*)—N^6-(4-pyrrolidino-butyl)-(4S*,7R*)-[4,7-ethenylene-spiro[2.4]heptane]-5,6-dicarboxamide], the EC50 stood at 8.87 µM on human ALX receptor and 330 nM on human FPRL2.
On the same counts, the results for `O=C(NCCCCN1CCCC1)[C@H]1[C@H](C(=O)NCc2cc(F)cc(C(F)(F)F)c2)[C@@H]2C=C[C@H]1C21CC1` (racemic) [Example 362, (5R*)—N^5-(3-Fluoro-5-trifluoromethylphenyl-methyl)-(6R*)—N^6-(4-pyrrolidino-butyl)-(4S*,7R*)-[4,7-ethenylene-spiro[2.4]heptane]-5,6-dicarboxamide] are 9.09 µM and 306 nM.
